Data from patent US20170007561A1, “CONTEMPORANEOUS, HETEROGENEOUSLY-ORIENTED, MULTI-TARGETED THERAPEUTIC MODIFICATION AND/OR MODULATION OF DISEASE BY ADMINISTRATION OF SULFUR-CONTAINING, AMINO ACID-SPECIFIC SMALL MOLECULES” (BioNumerik Pharmaceuticals, Inc., priority 2014, published 2017).
Read-outs that look alike come from different tables or passages of the source.

What was measured:
[1] = system: mammalian thioredoxin reductase (TrxR); conditions: cited from earlier work
[2] = single oral dose of 100 mg to healthy volunteers; cited from earlier work
TrxR/Trx system = target: T1, TrxR/Trx system (Homo sapiens, UniProt P10599); assay: TrxR/Trx NADPH oxidation assay; type: biochemical; conditions: increasing concentrations of test substance
T1 construct: purchased Sigma (Trx); American Diagnostica (bovine TrxR)
T1 sequence (P10599 1-105): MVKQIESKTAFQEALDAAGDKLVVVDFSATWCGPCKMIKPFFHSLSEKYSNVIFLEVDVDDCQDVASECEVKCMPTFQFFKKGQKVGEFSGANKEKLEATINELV
From the text: (Note: error bars are small and may be obscured by the symbols). […] (Note: error bars were omitted but assays were run in quadruplicate with typical errors of 5-8% between individual replicates). […] Panel D: Initial velocity reaction rates corresponding to progress curves shown in Panel C. With time, Trx-mesna and Trx-GSH are converted back to apo-Trx by Trx reductase (see also, FIG. 69, Panel E).

bovine TrxR = target: T2, bovine TrxR (Bos taurus, UniProt O62768); assay: TrxR NADPH oxidation assay without Trx (Reaction A); type: biochemical; conditions: TrxR alone + NADPH, no Trx
T2 construct: purchased American Diagnostica
T2 sequence (O62768 1-499): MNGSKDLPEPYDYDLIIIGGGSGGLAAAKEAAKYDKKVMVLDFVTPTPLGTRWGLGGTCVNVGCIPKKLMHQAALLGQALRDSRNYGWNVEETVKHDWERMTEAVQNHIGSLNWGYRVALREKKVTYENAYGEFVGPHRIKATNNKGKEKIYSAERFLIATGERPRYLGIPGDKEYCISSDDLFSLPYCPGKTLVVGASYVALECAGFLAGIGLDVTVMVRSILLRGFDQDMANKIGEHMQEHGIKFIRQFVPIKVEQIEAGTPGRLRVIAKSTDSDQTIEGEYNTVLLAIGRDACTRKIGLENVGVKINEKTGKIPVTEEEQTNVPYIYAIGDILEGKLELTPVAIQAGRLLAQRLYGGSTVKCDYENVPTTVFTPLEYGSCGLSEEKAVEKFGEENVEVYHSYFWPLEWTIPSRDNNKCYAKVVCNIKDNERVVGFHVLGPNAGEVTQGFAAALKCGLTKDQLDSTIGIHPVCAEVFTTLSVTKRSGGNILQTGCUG

T790M EGFR kinase = T790M EGFR kinase (Homo sapiens, UniProt P00533, T790M); assay: EGFR kinase assay (ADP-glo, polyGT substrate), T790M mutant; type: biochemical; conditions: for IC50: read-out: IC50, inhibition of T790M EGFR kinase; for effect on Erlotinib inhibition of T790M EGFR kinase activity: heteroconjugate in combination with Erlotinib, 10 μM and/or 100 μM ATP
[3] = target: T3, glutathione reductase (GR) (Homo sapiens, UniProt P00390); conditions: cited from earlier work
T3 sequence (P00390 44-522): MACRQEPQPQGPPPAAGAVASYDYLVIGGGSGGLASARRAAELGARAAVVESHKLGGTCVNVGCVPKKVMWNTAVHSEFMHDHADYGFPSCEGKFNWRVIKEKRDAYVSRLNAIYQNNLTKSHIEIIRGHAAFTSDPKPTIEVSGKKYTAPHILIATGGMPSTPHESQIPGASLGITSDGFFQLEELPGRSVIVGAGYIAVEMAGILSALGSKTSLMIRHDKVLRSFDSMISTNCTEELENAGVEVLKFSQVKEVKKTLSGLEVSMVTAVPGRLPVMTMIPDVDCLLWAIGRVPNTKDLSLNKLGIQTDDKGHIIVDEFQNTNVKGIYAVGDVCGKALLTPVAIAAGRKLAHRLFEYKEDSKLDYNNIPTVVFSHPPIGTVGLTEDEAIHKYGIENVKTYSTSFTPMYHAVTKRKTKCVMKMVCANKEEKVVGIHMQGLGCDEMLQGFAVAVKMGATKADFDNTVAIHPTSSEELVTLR

[4] = system: bovine brain microtubule protein (α-/β-tubulin); assay: Microtubule protein polymerization assay (OD350); type: biochemical; conditions: for protection against monoaquocisplatin-induced loss of microtubule protein polymerization: preincubated with monoaquocisplatin (36 μM), mesna or cysteine 200 μM; for effect on microtubule protein polymerization: sodium chloride 32 mM control
ErbB-2 = ErbB-2 (Homo sapiens, UniProt P04626); parameters: key: the “+” and “−” symbols signify the ability and inability to activate each of the ErbB receptors, respectively; the “+” and “−” symbols signify the ability and inability to activate each of the ErbB receptors, respectively; conditions: cited from earlier work
ErbB-4 = ErbB-4 (Homo sapiens, UniProt Q15303); parameters: key: the “+” and “−” symbols signify the ability and inability to activate each of the ErbB receptors, respectively; the “+” and “−” symbols signify the ability and inability to activate each of the ErbB receptors, respectively; conditions: cited from earlier work
ErbB-3 = ErbB-3 (Homo sapiens, UniProt P21860); parameters: key: the “+” and “−” symbols signify the ability and inability to activate each of the ErbB receptors, respectively; the “+” and “−” symbols signify the ability and inability to activate each of the ErbB receptors, respectively; conditions: cited from earlier work
ErbB-1 = ErbB-1 (Homo sapiens, UniProt P00533); conditions: cited from earlier work

Chain of ErbB-4 (Q15303 26-1308, species assumed): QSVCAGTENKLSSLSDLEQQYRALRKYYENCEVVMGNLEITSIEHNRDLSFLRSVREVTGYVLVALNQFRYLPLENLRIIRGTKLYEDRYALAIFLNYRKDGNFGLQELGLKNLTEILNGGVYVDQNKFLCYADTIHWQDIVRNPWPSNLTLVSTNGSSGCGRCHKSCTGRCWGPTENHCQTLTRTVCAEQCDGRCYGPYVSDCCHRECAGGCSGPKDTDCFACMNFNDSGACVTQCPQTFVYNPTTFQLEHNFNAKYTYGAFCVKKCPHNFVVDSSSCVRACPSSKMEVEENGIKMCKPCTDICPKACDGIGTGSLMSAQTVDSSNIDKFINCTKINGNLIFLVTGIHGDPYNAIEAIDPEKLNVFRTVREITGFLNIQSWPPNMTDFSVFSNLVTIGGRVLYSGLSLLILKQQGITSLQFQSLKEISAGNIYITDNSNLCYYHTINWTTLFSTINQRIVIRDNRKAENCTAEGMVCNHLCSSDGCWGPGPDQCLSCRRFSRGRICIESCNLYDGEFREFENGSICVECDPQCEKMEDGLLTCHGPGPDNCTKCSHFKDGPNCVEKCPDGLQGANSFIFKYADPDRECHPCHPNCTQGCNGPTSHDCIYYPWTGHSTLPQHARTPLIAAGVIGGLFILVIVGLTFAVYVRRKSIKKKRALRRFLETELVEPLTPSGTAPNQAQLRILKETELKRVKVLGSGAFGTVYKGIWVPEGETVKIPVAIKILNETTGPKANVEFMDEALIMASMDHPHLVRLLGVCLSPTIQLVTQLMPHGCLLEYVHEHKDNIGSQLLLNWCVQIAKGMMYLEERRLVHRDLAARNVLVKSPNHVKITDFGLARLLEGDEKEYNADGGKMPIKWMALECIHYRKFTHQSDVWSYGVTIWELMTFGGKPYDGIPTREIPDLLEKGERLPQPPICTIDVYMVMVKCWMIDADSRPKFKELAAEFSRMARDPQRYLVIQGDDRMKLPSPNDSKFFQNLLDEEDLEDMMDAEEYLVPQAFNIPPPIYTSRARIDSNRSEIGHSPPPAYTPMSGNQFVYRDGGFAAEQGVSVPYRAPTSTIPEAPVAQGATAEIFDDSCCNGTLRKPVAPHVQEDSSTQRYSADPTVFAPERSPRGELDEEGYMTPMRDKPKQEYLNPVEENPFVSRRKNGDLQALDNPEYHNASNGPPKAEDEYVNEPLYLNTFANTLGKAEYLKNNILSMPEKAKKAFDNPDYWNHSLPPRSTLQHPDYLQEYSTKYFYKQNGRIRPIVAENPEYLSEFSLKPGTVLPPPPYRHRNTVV

CC1=C(/C=C/C(C)=C/C=C/C(C)=C\C(=O)O)C(C)(C)CCC1 [13-cis-retinoic acid]
Inhibition of TrxR [1]: irreversible inhibition of TrxR

C#Cc1cccc(Nc2ncnc3cc(OCCOC)c(OCCOC)cc23)c1 [Erlotinib, reference compound]
Cmax [2]: 1390 ng/mL

NC(CSSCCS(=O)(=O)O)C(=O)O (stereo not drawn) [MSSC, mesna-cysteine disulfide]
NADPH oxidation by TrxR and Trx (TrxR/Trx system): increases
NADPH Oxidation, Reaction A (bovine TrxR; disulfide 0.5 mM): 0.2 ± 0.03 nmol/min/mL

NC(CSSCCS(=O)(=O)O)C(=O)NC(CCC(=O)O)C(=O)O (stereo not drawn) [MSSCE, mesna-cysteinyl glutamate disulfide]
NADPH Oxidation, Reaction A (bovine TrxR; disulfide 0.5 mM): 0.3 ± 0.02 nmol/min/mL

NC(CSSCCS(=O)(=O)O)C(=O)NCC(=O)O (stereo not drawn) [MSSCG, mesna-cysteinyl glycine disulfide]
NADPH Oxidation, Reaction A (bovine TrxR; disulfide 0.5 mM): 0.2 ± 0.04 nmol/min/mL

NC(CSSCCS(=O)(=O)O)C(=O)O (stereo not drawn) [Mesna-Cysteine]
IC50 (T790M EGFR kinase; 10 μM ATP): 3.76 ± 0.26 mM
IC50 (T790M EGFR kinase; 100 μM ATP): 3.03 ± 0.28 mM
effect on Erlotinib inhibition of T790M EGFR kinase activity (T790M EGFR kinase): effectively potentiated

NC(CSSCCS(=O)(=O)O)C(=O)NC(CCC(=O)O)C(=O)O (stereo not drawn) [Mesna-Cysteinylglutamate]
IC50 (T790M EGFR kinase; 10 μM ATP): 1.09 ± 0.19 mM
IC50 (T790M EGFR kinase; 100 μM ATP): 1.05 ± 0.08 mM
effect on Erlotinib inhibition of T790M EGFR kinase activity (T790M EGFR kinase): effectively potentiated

NC(CSSCCS(=O)(=O)O)C(=O)NCC(=O)O (stereo not drawn) [Mesna-Cysteinylglycine]
IC50 (T790M EGFR kinase; 10 μM ATP): 0.51 ± 0.01 mM
IC50 (T790M EGFR kinase; 100 μM ATP): 0.41 ± 0.05 mM
effect on Erlotinib inhibition of T790M EGFR kinase activity (T790M EGFR kinase): effectively potentiated

NC(CCC(=O)NC(CSSCCS(=O)(=O)O)C(=O)NCC(=O)O)C(=O)O (stereo not drawn) [Mesna-Glutathione]
IC50 (T790M EGFR kinase; 10 μM ATP): 1.28 ± 0.29 mM
IC50 (T790M EGFR kinase; 100 μM ATP): 1.17 ± 0.01 mM
effect on Erlotinib inhibition of T790M EGFR kinase activity (T790M EGFR kinase): effectively potentiated

CS(=O)(=O)OCCCCOS(C)(=O)=O [busulfan]
Inhibition of GR [3]: not GR
Inhibition of TrxR [1]: irreversibly inhibited TrxR in a concentration- and time-dependent manner

N.N.O=C([O-])C1(C(=O)[O-])CCC1.[Pt+2] [carboplatin]
Inhibition of GR [3]: could not inhibit either TrxR or GR
Inhibition of TrxR [1]: could not inhibit either TrxR or GR

O=NN(CCCl)C(=O)NCCCl [carmustine]
Inhibition of GR [3]: can inhibit both GR and Trx
Inhibition of TrxR [1]: can inhibit both GR and Trx

O=C(O)CCCc1ccc(N(CCCl)CCCl)cc1 [chlorambucil]
Inhibition of GR [3]: not GR
Inhibition of TrxR [1]: irreversibly inhibited TrxR in a concentration- and time-dependent manner

N.N.[Cl][Pt][Cl] [cisplatin]
Inhibition of GR [3]: not GR
Inhibition of TrxR [1]: irreversibly inhibited TrxR

O=P1(N(CCCl)CCCl)NCCCO1 (stereo not drawn) [cyclophosphamide]
Inhibition of GR [3]: not GR
Inhibition of TrxR [1]: irreversibly inhibited TrxR in a concentration- and time-dependent manner

N[C@@H](CS)C(=O)O [cysteine, reference compound]
effect alone on microtubule protein polymerization ([4]; in the absence of monoaquocisplatin): neither mesna nor cysteine alone (in the absence of monoaquocisplatin) had any effect

COc1cccc2c1C(=O)c1c(O)c3c(c(O)c1C2=O)C[C@@](O)(C(C)=O)C[C@@H]3O[C@H]1C[C@H](N)[C@H](O)[C@H](C)O1 [daunorubicin]
Inhibition of TrxR [1]: not inhibitors of TrxR

N[C@@H](CCC(=O)O)C(=O)O [glutamate, reference compound]
protection against monoaquocisplatin-induced loss of microtubule protein polymerization [4]: not seen

NC(=O)CC[C@H](N)C(=O)O [glutamine, reference compound]
protection against monoaquocisplatin-induced loss of microtubule protein polymerization [4]: not seen

O=P1(NCCCl)OCCCN1CCCl (stereo not drawn) [ifosfamide]
Inhibition of TrxR [1]: inhibited TrxR

N[C@@H](Cc1ccc(N(CCCl)CCCl)cc1)C(=O)O [melphalan]
Inhibition of GR [3]: not GR
Inhibition of TrxR [1]: irreversibly inhibited TrxR in a concentration- and time-dependent manner

N.N.O.[Cl][Pt+] [monoaquocisplatin, reference compound]
effect of extended exposure on microtubule protein polymerization ([4]; monoaquocisplatin 36 μM): loss of microtubule protein's ability to polymerize

O=C1[O][Pt]2([NH][C@@H]3CCCC[C@H]3[NH]2)[O]C1=O [oxaliplatin]
Inhibition of GR [3]: not GR
Inhibition of TrxR [1]: irreversibly inhibited TrxR

[Cl-].[Na+] [sodium chloride]
effect on microtubule protein polymerization [4]: did not inhibit
effect on microtubule protein polymerization ([4]; listed as NaCl): no effect

N.N.[Cl][Pt+2][Cl] [transplatin]
Inhibition of GR [3]: not GR
Inhibition of TrxR [1]: irreversibly inhibited TrxR

EGF: growth factor ligand of ErbB receptors
ability to activate ErbB-2 (ErbB-2): −
ability to activate ErbB-4 (ErbB-4): −
ability to activate ErbB-3 (ErbB-3): −

HB-EGF: growth factor ligand of ErbB receptors
ability to activate ErbB-1 (ErbB-1): +
ability to activate ErbB-2 (ErbB-2): −
ability to activate ErbB-4 (ErbB-4): +
ability to activate ErbB-3 (ErbB-3): −

Insulin: positive control disulfide substrate of Trx [reference compound]
NADPH Oxidation, Reaction A (bovine TrxR; insulin 86 μM): 0.3 ± .03 nmol/min/mL

TGF-α: growth factor ligand of ErbB receptors
ability to activate ErbB-2 (ErbB-2): −
ability to activate ErbB-4 (ErbB-4): −
ability to activate ErbB-3 (ErbB-3): −

amphiregulin: growth factor ligand of ErbB receptors
ability to activate ErbB-1 (ErbB-1): +
ability to activate ErbB-2 (ErbB-2): −
ability to activate ErbB-4 (ErbB-4): −
ability to activate ErbB-3 (ErbB-3): −

betacellulin: growth factor ligand of ErbB receptors
ability to activate ErbB-1 (ErbB-1): +
ability to activate ErbB-2 (ErbB-2): −
ability to activate ErbB-4 (ErbB-4): +
ability to activate ErbB-3 (ErbB-3): −

epiregulin: growth factor ligand of ErbB receptors
ability to activate ErbB-1 (ErbB-1): +
ability to activate ErbB-2 (ErbB-2): −
ability to activate ErbB-4 (ErbB-4): +
ability to activate ErbB-3 (ErbB-3): −

neuregulin 1
ability to activate ErbB-1 (ErbB-1): −
ability to activate ErbB-2 (ErbB-2): −
ability to activate ErbB-4 (ErbB-4): +
ability to activate ErbB-3 (ErbB-3): +

B1: epigen: growth factor ligand of ErbB receptors (protein, UniProt Q6UW88 23-154, looked up)
Epigen: AAVTVTPPITAQQGNWTVNKTEADNIEGPIALKFSHLCLEDHNSYCINGACAFHHELEKAICRCFTGYTGERCEHLTLTSYAVDSYEKYIAIGIGVGLLLSGFLVIFYCYIRKRCLKLKSPYNVCSGERRPL
ability to activate ErbB-1 (ErbB-1): +
ability to activate ErbB-2 (ErbB-2): −
ability to activate ErbB-4 (ErbB-4): −
ability to activate ErbB-3 (ErbB-3): −
